Experimental findings from paper PMC10541198, “Specific quinone reductase 2 inhibitors reduce metabolic burden and reverse Alzheimer’s disease phenotype in mice” (The Journal of Clinical Investigation, 2023) are described below.

“And” between values parts separate entries of the source, which are not always exact repeats. Equal values may be shown once.

The assay has as its system 4-HNE. As to the kind of experiment: IHC of 4-HNE in 5xFAD brain sections. The format is in vivo, mouse. More on the design: 4-HNE upper quartile / 4-HNE lower quartile: unit not given here. The following applies: for 4-HNE distribution (F test) / 4-HNE lower quartile / 4-HNE normalized volume (individual mice) / 4-HNE upper quartile: CA1, 5xFAD 1 month; for Figure 9A, IHC signal / Sup. Fig. 6-1A, IHC signal: individual animals; for 4-HNE vs vehicle: cortex, 5xFAD 1 month. From the text:
Following the behavioral experiments, we assessed brain pathologies associated with AD present in the 5xFAD mice ([37]). Therefore, 5 days following the last behavioral experiment, and 1 month after the start of YB-537 consumption, mice were sacrificed, and coronal brain sections were used for IHC. Since the CA1 region of the hippocampus is affected during AD pathogenesis ([37]), and this brain region is involved in the behavioral paradigms used here, we acquired images of CA1. This was done with an Olympus IX83 confocal microscope using the same settings, antibodies, and exposures in all mice. Images were analyzed using Imaris (Bitplane; see methods). For each mouse, 3 coronal sections were used per antibody. In each section, the same region of CA1 was acquired, using the same image frame size and resolution, at all possible depths of the section — using a Z-stack of the whole section — to allow measurement of the fluorescent antibody marker volume, which was normalized to the brain volume from which it was taken. First, we measured oxidative stress, as indicated by 4-HNE ([38]) (Abcam, ab48506).
Perfused and fixed brain slices were blocked with 10% normal donkey serum (DNS) and 0.2% triton (Sigma-Aldrich) in PBS. Antibodies, including 4-HNE (AbCam, ab48506), Iba1 (AbCam, ab5076), AT-8 (Thermo, MN1020), Amyloid β (AbCam, ab201060), diluted in PBS with 10% DNS, were incubated at 4°C overnight. Secondary antibodies including donkey-anti-goat Alexa Fluor 568 (AbCam, ab175704), donkey-anti-mouse Cy 5 (Jackson Immuno Research, 715-175-151), and donkey-anti-rabbit DyLight 488 (AbCam, ab98488) all diluted 1:500 in PBS with 1% BSA, were applied to the slices at RT for 2 hours the next day. Slices were mounted onto glass slides using DAPI containing Vectashield (H-1200). Images were taken using a confocal microscope (Olympus IX83). Three slices were used per mouse per antibody. Tiling images of the dorsal CA1 and cortex (Bregma: –1.58mm to –2.30mm) were taken using ×20 objective, acquiring a Z-stack of the whole section. Analysis of the images was done blind by an experimenter unaware of the experimental conditions or details, using Imaris (Bitplane) software. A surface reconstruction module was used to extract the data as volumes of the used markers (4-HNE, phospho-tau, amyloid β, GFAP, and Iba1). Marker volume and intensity were normalized to the corresponding brain volume. The normalized value was averaged for each triplicate and presented here. […]
Brains were then briefly removed and placed in chilled, 4% PFA for 48 h, f oll owe d by immersion in 30% sucrose in 0.1 M PBS for a furt her 48 h. Bra i ns wer e t h e n stored at -80°C, until t he y were sliced into 40µm coronal sections usinga Lei ca CM 1950cryostat. Sli ces were then washed x3 in PBS and bl oc ke d for 1 h at RT using 10% normal donkey serum (DNS) and 0.2% triton (Sigma-Aldrich) in PBS. Antibodies, including 4- HNE (1:500, AbCam, ab48506), Iba1 (1:2,000, AbCam, ab5076), GFAP (Abcam, ab53554), phospho- tau (1:1,000, Thermo, MN1020) and amyloid β (1:1,000, AbCam, ab201060) diluted in PBS with 10% DNS were incubated at 4°C overnight. The next day, the slices were washed x3 times in PBS, and secondary antibodies including donkey anti goat A l e x a Fluor 568 (AbCam, ab175704), donkey anti-mouse Cy 5 (Jackson Immuno Research, 715- 175- 151) and donkey anti-rabbit DyLight 488 (AbCam, ab98488) all diluted 1:500 in PBS with 1% BSA, were applied to the slices at RT for 2 h. Following the incubation, the slices were washed x3 times in PBS, mounted onto gl ass slides, were uniformly covered in DAPI containing Vectashield (H-1200) and coverslips were a dde d. […]

For the compound `Cc1ccc(-c2cn3cccc(C)c3n2)cc1S(=O)(=O)N1CCNCC1` [YB-537], the “4-HNE distribution (F test)” value was “significantly changes distribution” (Females) and “tends to alter distribution” (total population). The 4-HNE lower quartile runs as follows: (Females) 0.0409; (both sexes) 0.0418. The “4-HNE normalized volume (individual mice)” value reads like this: (Females) 0.0514 and 0.0389 and 0.0542 and 0.0413 and 0.0409 and 0.0433 and 0.0449; (Males) 0.0457 and 0.0892 and 0.0543 and 0.0490 and 0.0489 and 0.0313 and 0.0587 and 0.0539 and 0.0508; (Males + Females) 0.0514 and 0.0389 and 0.0542 and 0.0313 and 0.0587 and 0.0539 and 0.0508 and 0.0457 and 0.0892 and 0.0543 and 0.0490 and 0.0489 and 0.0413 and 0.0409 and 0.0433 and 0.0449. The 4-HNE upper quartile is given as 0.0514 (Females) and 0.0541 (both sexes). Besides, the “Figure 9A, IHC signal” value was 0.0148 and 0.0125 and 0.0103 and 0.0159 and 0.0128 and 0.0161 and 0.0104 and 0.0145 and 0.0118 (Cortex); 0.0222 and 0.0139 and 0.0101 and 0.0187 and 0.0170 and 0.0160 and 0.0186 and 0.0121 and 0.0197 (Hippocampus). In addition, the “Sup. Fig. 6-1A, IHC signal” value reads like this: (Females) 0.0214 and 0.0277 and 0.0236 and 0.0333 and 0.0429 and 0.0318 and 0.0155; (Males + Females) 0.0231 and 0.0112 and 0.0400 and 0.0392 and 0.0271 and 0.0198 and 0.0429 and 0.0318 and 0.0155 and 0.0214 and 0.0277 and 0.0236 and 0.0333 and 0.0301 and 0.0174 and 0.0275; (Males) 0.0231 and 0.0112 and 0.0400 and 0.0392 and 0.0271 and 0.0198 and 0.0301 and 0.0174 and 0.0275. The 4-HNE vs vehicle result runs as follows: (females) “not significantly altered”; (males) “not significantly altered”; (total population) “not significantly altered”.
